Data taken from patent US10543212B2, “Substituted amines for treating cardiac diseases” (Cardurion Pharmaceuticals, LLC, priority 2017, dated 2020).

Target: T1, Full-length, GST-tagged, human CaMKIIδ (Homo sapiens, UniProt Q13557)
T1 construct: Full-Length, Glutathione-S-Transferase(GST)-Tagged, Human CaMKIIδ was purchased from Carna Biosciences; purchased Carna Biosciences 02-111
Experiment: CaMKIIδ binding assay (TR-FRET with BODIPY-labeled probe ligand)
Procedure: In vitro CaMKIIδ inhibitory activity was evaluated by a binding assay.
Full-Length, Glutathione-S-Transferase(GST)-Tagged, Human CaMKIIδ was purchased from Carna Biosciences (product #02-111, Kobe, Japan). Full-length bovine calmodulin was purchased from Wako Pure Chemical Industries (Osaka, Japan). Terbium-labeled anti-GST antibody (Tb-anti-GST Ab) was purchased from Life Technologies (Carlsbad, Calif., USA). Boron-dipyrromethene (BODIPY)-labeled probe ligand was synthesized as described below.
Time-Resolved Fluorescence Resonance Energy Transfer (TR-FRET) Assay
All assays were conducted using 384-well, white, flat-bottomed plates (product #784075, Greiner Bio-One, Frickenhausen, Germany) in kinase assay buffer, which consists of 50 mM HEPES pH 7.6, 10 mM MgCl2, 1 mM EGTA, 0.01% Brig-35, 0.1 mM DTT). The fluorescent probe ligand was added at a final concentration of 300 nM to solutions containing 0.21 nM Tb-anti-GST Ab, 1 mM CaCl2), 10 μg/mL calmodulin, and 0.5 nM GST-tagged CaMKIIδ. After shaded incubation of the protein-probe mixture on ice for 30 min, the premix was dispensed in the assay plate including test inhibitors with 4 fold dilution series of eight concentrations. After 1 hr incubation at room temperature, TR-FRET signals were measured in duplicate using an EnVision microplate reader (Perkin Elmer, Waltham, Mass., USA). The solution in each well was excited with a laser (λ=340 nm) reflected by a dichroic mirror (D400/D505 (Perkin Elmer) through an excitation filter (UV (TRF) 340, (Perkin Elmer)), and fluorescence from Tb and BODIPY were detected through two emission filters (CFP 495 (Perkin Elmer) for Tb, Emission 520 (Perkin Elmer) for BODIPY).
The percentage of inhibition of test compounds was calculated according to equation (1) Inhibition (%)=100×([…]−T)/(μH−μL) (1)
Where T is the value of the wells containing test compounds and μH and μL are the mean values of the 0% and 100% inhibition control wells, respectively. The values of the 0 and 100% controls were the signals obtained in the absence and presence of 3 μM its parent compound, respectively. The half maximal inhibitory concentration (IC50) of test compounds was calculated by fitting the data with the logistic equation using XLfit (IDBS, Guildford, UK). The IC50 was classified according to the following activity ranks.

[1] = CaMKIIδ binding assay, activity class per Table 2
[2] = CaMKIIδ binding assay, results of Table 2
[3] = Table 2, activity class for CaMKIIδ

T1 sequence (Q13557 1-478 isoform Q13557-12): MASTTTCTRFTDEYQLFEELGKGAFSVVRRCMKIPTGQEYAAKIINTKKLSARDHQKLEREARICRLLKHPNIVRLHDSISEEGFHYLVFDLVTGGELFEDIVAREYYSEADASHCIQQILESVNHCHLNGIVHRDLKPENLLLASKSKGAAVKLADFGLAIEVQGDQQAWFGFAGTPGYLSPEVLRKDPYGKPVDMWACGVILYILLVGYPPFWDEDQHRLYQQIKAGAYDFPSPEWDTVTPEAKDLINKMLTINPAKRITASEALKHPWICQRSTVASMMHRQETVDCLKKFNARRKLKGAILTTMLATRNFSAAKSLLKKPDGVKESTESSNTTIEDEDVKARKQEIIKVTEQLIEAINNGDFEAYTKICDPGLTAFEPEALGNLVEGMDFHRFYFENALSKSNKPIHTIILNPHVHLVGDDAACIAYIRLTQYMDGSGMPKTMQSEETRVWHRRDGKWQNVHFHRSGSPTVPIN

`C[C@@H](Cn1cnnn1)Oc1cc(-c2cnc(Nc3cn(-c4ccc(=O)[nH]c4)nc3OCC(F)(F)F)nc2)ccc1Cl` [Example 902, (S)-5-(4-((5-(3-((1-(1H-tetrazol-1-yl)propan-2-yl)oxy)-4-chlorophenyl)pyrimidin-2-yl)amino)-3-(2,2,2-trifluoroethoxy)-1H-pyrazol-1-yl)pyridin-2(1H)-one] showed an IC50 [1] of under 10 nM.

`C[C@@H](Cn1cnnn1)Oc1cc(-c2cnc(Nc3cn(CC4CCN(C(=O)OC(C)(C)C)C4)nc3C(F)(F)F)nc2)ccc1Cl` (stereo partly drawn) [Example 571, tert-butyl 3-((4-((5-(3-(((S)-1-(1H-tetrazol-1-yl)propan-2-yl)oxy)-4-chlorophenyl)pyrimidin-2-yl)amino)-3-(trifluoromethyl)-1H-pyrazol-1-yl)methyl) pyrrolidine-1-carboxylate] gave an IC50 [2] of at least 100 nM.

Compound `C[C@@H](Cn1cnnn1)Oc1cc(-c2cnc(Nc3cn(Cc4n[nH]c(=O)[nH]4)nc3C(F)(F)F)nc2)ccc1Cl` [Example 722, (S)-5-((4-((5-(3-((1-(1H-tetrazol-1-yl)propan-2-yl)oxy)-4-chlorophenyl)pyrimidin-2-yl)amino)-3-(trifluoromethyl)-1H-pyrazol-1-yl)methyl)-2,4-dihydro-3H-1,2,4-triazol-3-one] has an IC50 [3] of at least 100 nM.

`C[C@@H](Cn1cnnn1)Oc1cc(-c2cnc(Nc3cn(CC4(O)CCN(C)CC4)nc3C(F)(F)F)nc2)ccc1Cl` [Example 891, (S)-4-((4-((5-(3-((1-(1H-tetrazol-1-yl)propan-2-yl)oxy)-4-chlorophenyl)pyrimidin-2-yl)amino)-3-(trifluoromethyl)-1H-pyrazol-1-yl)methyl)-1-methylpiperidin-4-ol] was tested, and the IC50 [1] was under 10 nM.

Compound `C[C@@H](Cn1cnnn1)Oc1cc(-c2cnc(Nc3cn(C4CC5(CNC5)C4)nc3C(F)(F)F)nc2)ccc1Cl` [Example 920, (S)-5-(3-((1-(1H-tetrazol-1-yl)propan-2-yl)oxy)-4-chlorophenyl)-N-(1-(2-azaspiro[3.3]heptan-6-yl)-3-(trifluoromethyl)-1H-pyrazol-4-yl)pyrimidin-2-amine] has an IC50 [1] of under 10 nM.

`C[C@@H](Cn1cnnn1)Oc1cc(-c2cnc(Nc3cc4c(cc3Cl)CCN(C3COC3)CC4)nc2)ccc1Cl` [Example 513, (S)-N-(5-(3-((1-(1H-tetrazol-1-yl)propan-2-yl)oxy)-4-chlorophenyl)pyrimidin-2-yl)-8-chloro-3-(oxetan-3-yl)-2,3,4,5-tetrahydro-1H-benzo[d]azepin-7-amine] was tested, and the IC50 [2] was under 10 nM.

In the case of `COc1cc(N2CCOC(CN(C)C)C2)ccc1Nc1ncc(-c2ccc(Cl)c(O[C@@H](C)Cn3cnnn3)c2)cn1` (stereo partly drawn) [Example 688, 5-(3-(((S)-1-(1H-tetrazol-1-yl)propan-2-yl)oxy)-4-chlorophenyl)-N-(4-(2-((dimethylamino)methyl)morpholino)-2-methoxyphenyl)pyrimidin-2-amine], the IC50 [3] is reported as under 10 nM.

With `C[C@@H](Cn1cnnn1)Oc1cc(-c2cnc(Nc3cn(CC(F)(F)F)nc3OCC(F)(F)F)nc2)ccc1Cl` [Example 756, (S)-5-(3-((1-(1H-tetrazol-1-yl)propan-2-yl)oxy)-4-chlorophenyl)-N-(3-(2,2,2-trifluoroethoxy)-1-(2,2,2-trifluoroethyl)-1H-pyrazol-4-yl)pyrimidin-2-amine] the IC50 (Table 2, CaMKIIδ binding assay, activity given as class A/B/C) was 10 to 100 nM.

`C[C@@H](Cn1cnnn1)Oc1cc(-c2cnc(Nc3cn(C4CCN(CCC(C)(C)C)CC4)nc3C(F)(F)F)nc2)ccc1Cl` [Example 547, (S)-5-(3-((1-(1H-tetrazol-1-yl)propan-2-yl)oxy)-4-chlorophenyl)-N-(1-(1-(3,3-dimethylbutyl)piperidin-4-yl)-3-(trifluoromethyl)-1H-pyrazol-4-yl)pyrimidin-2-amine] showed an IC50 [2] of under 10 nM.

With `C[C@H](Cn1cnnn1)Oc1cc(-c2cnc(Nc3cn([C@H]4CC[C@@H](N5CCOCC5)CC4)nc3C(F)(F)F)nc2)ccc1Cl` [Example 896, 5-(3-(((R)-1-(1H-tetrazol-1-yl)propan-2-yl)oxy)-4-chlorophenyl)-N-(1-(cis-4-morpholinocyclohexyl)-3-(trifluoromethyl)-1H-pyrazol-4-yl)pyrimidin-2-amine] the IC50 [1] was at least 100 nM.
